In patent US10183937B2, “1,3-thiazol-2-yl substituted benzamides” (BAYER AKTIENGESELLSCHAFT, priority 2014, dated 2019):

Key:
[1] = In vitro metabolic stability in liver microsomes (calculation of CL and Fmax); format: in vitro ADME, human; details: 1 μM, maximal oral bioavailability calculated from half-life
Experimental: In Vitro Metabolic Stability Assays Determination of In Vitro Metabolic Stability in Microsomes (Including Calculation of Hepatic In Vivo Blood Clearance (CL) and of Maximal Oral Bioavailability (Fmax))
The metabolic assay was started shortly afterwards by adding the test compound to the incubation at a final volume of 1 mL. Organic solvent in the incubations was limited to ≤0.01% dimethylsulfoxide (DMSO) and ≤1% acetonitrile. […] Samples were frozen at −20° C. overnight, subsequently centrifuged for 15 minutes at 3000 rpm and the supernatant was analyzed with an Agilent 1200 HPLC-system with LCMS/MS detection.
The half-life of a test compound was determined from the concentration-time plot. From the half-life (kel: slope of concentration-time plot; half-life=ln 2/kel) the intrinsic clearances were calculated. Together with the additional parameters liver blood flow, specific liver weight and microsomal protein content the hepatic in vivo blood clearance (CL) and the maximal oral bioavailability (Fmax) were calculated for the different species.
(§1) Metabolic instability is often the main clearance mechanism of xenobiotica leading to a high CL and low bioavailability which may eventually result in a short half-life and a low exposure after oral administration. Thus, reducing the susceptibility of metabolic degradation usually leads to a more favourable pharmacokinetic profile. When using liver microsomes as incubation matrix main phase I metabolic reactions, typically oxidoreductive reactions by cytochrome P450 enzymes and flavin mono-oxygenases (FMO) and hydrolytic reactions by esterases/amidases/epoxidhydrolases, are described. When the incubation of the test compound is performed in a hepatocyte matrix all potential hepatic metabolic processes (phase I and phase II) are covered.

rat hepatocytes = test: In vitro metabolic stability in rat hepatocytes; format: in vitro ADME, Han Wistar rats; details: 1 μM, maximal oral bioavailability calculated from half-life
Experimental: Determination of In Vitro Metabolic Stability in Rat Hepatocytes (Including Calculation of Hepatic In Vivo Blood Clearance (CL))
Hepatocytes from Han Wistar rats were isolated via a 2-step perfusion method. After perfusion, the liver was carefully removed from the rat: the liver capsule was opened and the hepatocytes were gently shaken out into a Petri dish with ice-cold Williams' medium E (WME). The resulting cell suspension was filtered through sterile gaze in 50 mL falcon tubes and centrifuged at 50×g for 3 min at room temperature. The cell pellet was resuspended in 30 mL WME and centrifuged through a Percoll® gradient for 2 times at 100×g. The hepatocytes were washed again with WME and resuspended in medium containing 5% FCS. Cell viability was determined by trypan blue exclusion. […] The test compound was added to a final concentration of 1 μM. […] Samples were frozen at −20° C. overnight, subsequently centrifuged for 15 minutes at 3000 rpm and the supernatant was analyzed with an Agilent 1200 HPLC-system with LCMS/MS detection.
The half-life of a test compound was determined from the concentration-time plot. From the half-life (kel: slope of concentration-time plot; half-life=ln 2/kel) the intrinsic clearances were calculated. Together with the additional parameters liver blood flow, amount of liver cells in vivo and in vitro.
as §1

[2] = Human liver cytosol stability assay; format: in vitro ADME; details: 4 h incubation
Experimental: Human Liver Cytosol Stability Assay
Method description: Human liver cytosol (pooled, >30 male and female donors) was incubated with individual test compounds in order to compare the extent of depletion of test compound and formation of the respective oxidised metabolite.
An incubation volume of 1000 μL was used. The test compound was added from a stock solution in acetonitrile at 1 or 10 μM concentration in the incubation. Incubations were performed at 37° C. Reactions were stopped at 0 h and 4 h after incubation by addition of 100 μL acetonitrile to 250 μL of incubation mixture. Precipitated proteins were removed by centrifugation at approximately 3000 rpm. The supernatants were stored at approximately −20° C. until they were analysed. […]
Data analysis: The depletion of the test compound and formation of the corresponding metabolites were determined by decrease or increase of the corresponding peak area in the chromatogram after UV detection at approximately 300 nm 4 h after incubation compared to that at 0 h after incubation. […]

vaginal hyperalgesia = test: Rat dyspareunia model (visceromotor response to vaginal distension); format: in vivo, Sprague Dawley rats; details: 15 mg/kg oral b.i.d. during 2 weeks
Excerpt: The visceromotor response (VMR) to vaginal distension was used in conscious animals as an objective measure of vaginal sensitivity. […] To measure VMR response, 2 Teflon-coated wire electrodes were sutured in the external oblique abdominal muscle, and tunneled subcutaneously to be exteriorized at the base of the neck for future access. On the day of VMR assessment, a lubricated small balloon (1 cm length) was inserted into the mid-vaginal canal. The balloon catheter was secured to the base of the tail and connected to a volume controller/timing device (infusion pump) for balloon distension. The vaginal balloon was inflated to ramp intensities of distension (0.05 ml increments every 20 sec.) to a maximal volume of 0.8 ml. The electrodes were connected to an amplifier (Animal Bio Amp, ADInstruments), and the abdominal electromyographic signal was recorded using a data acquisition system (PowerLab, ADInstruments) for off-line analysis using LabChart version 7. The number of abdominal muscle contractions was counted manually for each 0.1 ml distension step, as an index of vaginal pain. […] All data were expressed as mean±standard deviation (s.d.), for the number (n) of measured rats per group. […] Planned comparison of means (matched-volume versus vehicle) was performed using a Bonferroni post hoc test, provided that a main effect was detected. […]

[3] = clinical PhII trials; attributed to blockade of P2X2/3 channels; cited from earlier work

Structure (SMILES)	Human liver microsome Fmax [1] [%]	Rat hepatocyte Fmax (rat hepatocytes) [%]	Test compound turnover after 4 h [2] [%]	Vaginal hyperalgesia compared to vehicle-treated animals (vaginal hyperalgesia)	taste side effect in treated subjects [3]
Cc1cnc(-c2cc(O[C@H]3CCOC3)cc(C(=O)N[C@H](C)c3cnc(C(F)(F)F)nc3)c2)s1 [Example 26, 3-(5-Methyl-1,3-thiazol-2-yl)-5-[(3S)-tetrahydrofuran-3-yloxy]-N-{(1R)-1-[2-(trifluoromethyl)pyrimidin-5-yl]ethyl}benzamide]	67	56	0.9		
Cc1cnc(-c2cc(OC(C)C(C)O)cc(C(=O)N[C@H](C)c3cnc(C(F)(F)F)nc3)c2)s1 (single isomer, unassigned) [Example 340]	90	64			
Cc1cnc(-c2cc(OC(C)C(C)O)cc(C(=O)N[C@H](C)c3cnc(C(F)(F)F)nc3)c2)s1 (single isomer, unassigned) [Example 339]	94	52			
Cc1cnc(-c2cc(O[C@@H]3CCOC3)cc(C(=O)N[C@H](C)c3cnc(C(F)(F)F)nc3)c2)s1 [Example 11, 3-(5-Methyl-1,3-thiazol-2-yl)-5-[(3R)-tetrahydrofuran-3-yloxy]-N-{(1R)-1-[2-(trifluoromethyl)pyrimidin-5-yl]ethyl}benzamide]	57	52	0.9	decreased vaginal hyperalgesia compared to vehicle-treated animals	
Cc1cnc(-c2cc(OC(C)C(C)O)cc(C(=O)N[C@H](C)c3cnc(C(F)(F)F)nc3)c2)s1 (single isomer, unassigned) [Example 163]	100	53			
Cc1cnc(-c2cc(OC(C)C(C)O)cc(C(=O)N[C@H](C)c3ccc(C(F)(F)F)nn3)c2)s1 (single isomer, unassigned) [Example 183]	74	43			
COc1cc(C(C)C)c(Oc2cnc(N)nc2N)cc1S(N)(=O)=O [AF-219]					taste disturbances
CCc1cnc(-c2cc(OC[C@H]3CN(C)CCO3)cc(C(=O)N[C@H](C)c3ccc(C(F)(F)F)nn3)c2)s1 [Example 419, 3-(5-ethyl-1,3-thiazol-2-yl)-5-{[(2R)-4-methyl-morpholin-2-yl]methoxy}-N-{(1R)-1-[6-(trifluoromethyl)pyridazin-3-yl]ethyl} benzamide]	74	51			
